Assay results reported in patent US20230113609A1, “SSTR5 ANTAGONISTS” (Kallyope, Inc., priority 2019, published 2023).

Tests used:
human SSTR5 = biological target: T1, human SSTR5 (Homo sapiens, UniProt P35346); test: Inositol phosphate accumulation assay (IP1 HTRF, antagonist mode); type: cell-based; details: CHO-K1 cells co-expressing human SSTR5 with Gqi5, SST28 agonist at concentration generating 90% of full activation
T1 construct: expressed in transfected cells
Outline: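 CHO-K1 cells stably co-expressing human SSTR5 and chimeric Gqi5 were pre-incubated with compound 15 minutes at 37° C, then stimulated with SST28 (30 nM as added, about EC90) for 90 minutes. IP1 read by HTRF (665/620 nm). % inhibition normalized to Max/Min controls; IC50 and maximal inhibition from 4-parameter fit.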

[1] = Oral bioavailability of the compounds after oral dosing in rat; details: in vivo, IV 1 mg/kg, PO 5 mg/kg, vehicle 5% DMSO + 30% PEG400 + 65% water
Description: Oral bioavailability of the compounds was determined in Sprague Dawley rats (Compound 90) or Wistar Han rats (Compound 81). The table below summarizes the results. Each compound was dosed intravenously (IV) at 1 mg/kg and orally (PO) 5 mg/kg using the respective vehicles listed below. The compounds display low (<10%) oral bioavailability (F%).

T1 sequence (P35346 whole entry): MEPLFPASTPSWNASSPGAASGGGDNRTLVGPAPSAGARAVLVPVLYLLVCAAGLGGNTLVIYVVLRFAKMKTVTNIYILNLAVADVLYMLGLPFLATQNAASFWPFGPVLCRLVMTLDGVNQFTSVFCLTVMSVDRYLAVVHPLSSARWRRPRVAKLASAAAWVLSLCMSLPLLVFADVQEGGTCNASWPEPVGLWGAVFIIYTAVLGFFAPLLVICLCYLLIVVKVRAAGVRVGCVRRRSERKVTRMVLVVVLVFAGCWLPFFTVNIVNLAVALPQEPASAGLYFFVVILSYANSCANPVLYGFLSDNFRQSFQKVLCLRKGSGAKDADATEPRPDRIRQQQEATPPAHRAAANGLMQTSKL

Compound | IC50 (human SSTR5) | bioavailability ([1]; Wistar Han rats) | bioavailability ([1]; Sprague Dawley rats)
CCOc1cc(-c2ccc(F)cc2)c(C2CC2)cc1CN1CCC2(CC1)CN(c1ccc(S(=O)(=O)NCCOCCO)cc1)C(=O)O2 [Example 81, 4-(8-((2-cyclopropyl-5-ethoxy-4′-fluoro-[1,1-biphenyl]-4-yl)methyl)-2-oxo-1-oxa-3,8-diazaspiro[4.5]decan-3-yl)-N-(2-(2-hydroxyethoxy)ethyl)benzenesulfonamide] | ≤ 100 nM | 7% | 
CCOc1cc(-c2ccc(F)cn2)c(C2CC2)cc1CN1CCC2(CC1)CN([C@H]1CC[C@](C)(C(=O)NCCOCCO)CC1)C(=O)O2 [compound 90] | ≤ 100 nM |  | 2.6%
CCOc1cc(-c2ccc(F)cn2)c(C2CC2)cc1CN1CCC2(CC1)CN(c1ccc(S(=O)(=O)NCCOCCO)cc1)C(=O)O2 [Example 82, 4-(8-(5-cyclopropyl-2-ethoxy-4-(5-fluoropyridin-2-yl)benzyl)-2-oxo-1-oxa-3,8-diazaspiro[4.5]decan-3-yl)-N-(2-(2-hydroxyethoxy)ethyl)benzenesulfonamide] | ≤ 100 nM |  | 

Other lines, results leading:

IC50 (human SSTR5) | bioavailability ([1]; Wistar Han rats) | bioavailability ([1]; Sprague Dawley rats) | Compound
> 5000 nM |  |  | CCOc1cc(C(=O)OCc2oc(=O)oc2C)c(C2CC2)cc1CN1CCC2(CC1)CC(=O)N(c1ccc(C(=O)NC[C@H](O)[C@@H](O)[C@H](O)[C@H](O)CO)cc1)C2 [compound 24]
> 5000 nM |  |  | CCOc1cc(C(=O)OC)c(C2CC2)cc1CN1CCC2(CC1)CC(=O)N(c1ccc(C(=O)NCCCC(=O)O)cc1)C2 [Example 23, 4-(4-(8-(5-cyclopropyl-2-ethoxy-4-(methoxycarbonyl)benzyl)-3-oxo-2,8-diazaspiro[4.5]decan-2-yl)benzamido) butanoic acid]
1000 to 5000 nM |  |  | CCOc1cc(C(=O)OC)c(C2CC2)cc1CN1CCC2(CC1)CC(=O)N(c1ccc(C(=O)NCCCC(=O)NCCO)cc1)C2 [Example 15, methyl 2-cyclopropyl-5-ethoxy-4-((2-(4-((4-((2-hydroxyethyl)amino)-4-oxobutyl)carbamoyl)phenyl)-3-oxo-2,8-diazaspiro[4.5]decan-8-yl)methyl)benzoate]
